This note sets out measurements from patent US20160303009A1, “HAIR CARE COMPOSITION” (CONOPCO, INC., D/B/A UNILEVER, priority 2013, published 2016).

This assay concerns trypsin. The assay is described as follows: Trypsin activity, fluorescence assay (EnzChek Protease Assay Kit E6639). In kind it is biochemical. The settings on record: trypsin 100 μg/ml, 50 mM Tris-HCl pH 8.0. The procedure:
Typsin activity was assessed using a commercial assay employing fluorescence measurement (EnzChek® Protease Assay Kit E6639 from Molecular Probes). The assayed solutions contained trypsin (100 μg/ml) and various amounts of the zinc salts in 50 mM Tris-HCl (pH 8.0).

`O.O.O.O.O.O.O.O=S(=O)([O-])[O-].[Zn+2]` [Zinc Sulfate Heptahydrate]: the Protease inhibition was 4% (salt concentration 0.0001 wt %); 14% (salt concentration 0.001 wt %); 33% (salt concentration 0.01 wt %); 92% (salt concentration 0.1 wt %); 93% (salt concentration 1 wt %).

For `[Cl-].[Cl-].[Zn+2]` [Zinc Chloride], the Protease inhibition is, setting by setting: (salt concentration 0.0001 wt %) 7%; (salt concentration 0.001 wt %) 20%; (salt concentration 0.01 wt %) 69%; (salt concentration 0.1 wt %) 93%; (salt concentration 1 wt %) 96%.

Regarding Zinc Gluconate, the Protease inhibition reads like this: (salt concentration 0.0001 wt %) −4%; (salt concentration 0.001 wt %) 10%; (salt concentration 0.01 wt %) 28%; (salt concentration 0.1 wt %) 94%; (salt concentration 1 wt %) 94%.
